Legend:
Jurkat [1] = experiment: MTS proliferation assay; assay type: cell-based; conditions: Homo sapiens, 72 h incubation
Experimental: (§1) The assay is performed in 96 well tissue culture plates. The cells (range : 1.5*10^3-10^4) are seeded out in 80 µl complete medium 24 h prior to compound treatment. The test compounds are added in 20 µl complete medium containing max 5% DMSO. The final compound concentrations in the assays are 10 µM, 3 µM,1 µM and 0.3 µM, respectively. The assay plates are incubated for 72 h at culture conditions. The MTS reagent is prepared according to the manufacturer's protocol (Promega G1111 ). 20 µl MTS reagent are added to each well, the assay plates are quickly spun and incubated for another 3 h at culture conditions. Subsequently, the plates are shortly shaked and absorption measured with a microplate-reader at 492 nm.

K562 [2] = experiment: MTS proliferation assay; assay type: cell-based; conditions: Homo sapiens, K562, 72 h incubation
Experimental: as §1

HeLa [3] = experiment: MTS proliferation assay; assay type: cell-based; conditions: Homo sapiens, 72 h incubation
Experimental: as §1

Jurkat [4] = experiment: Hoechst 33342 nuclear staining (Table 3); assay type: cell-based, human; design: key: 0 relating to no activity; 1 relating to weak activity comprising less than 50% of the cells; score 2 relating to strong activity comprising more than 50% of the cells
Experimental: (§2) This assay is performed in 96 well tissue culture plates. Appropriate number of cells (adherent cells: 3 - 5*10^3, suspension cells: 8 - 10*10^3) are being seeded out in 80 µl complete medium. Adherent cells are incubated for 24 h for proper spreading out before addition of test compounds while suspension cells are immediately treated with test compounds after seeding out. The test compounds are added in 20 µl complete medium containing max 5% DMSO. The final compound concentrations in the assays are 10 µM, 3 µM,1 µM and 0.3 µM, respectively. After 24 h or 48 h incubation at culture conditions, 10 µl medium containing Hoechst 33342 dye (Sigma B-2261) at 2-5 µg/ml are added to each well. The assay plates are then further incubated for 30 minutes and subsequently analyzed with a standard inverted fluorescence microscope. The readout allows the determination of the fraction of apoptotic nuclei as well as other morphological criteria specific for apoptosis as a function of the treatment. The following scores are used: 0 relating to no activity, 1 relating to weak activity comprising less than 50% of the cells and score 2 relating to strong activity comprising more than 50% of the cells.

K562 [5] = experiment: Hoechst 33342 nuclear staining (Table 3); assay type: cell-based, human; design: key: 0 relating to no activity; 1 relating to weak activity comprising less than 50% of the cells; score 2 relating to strong activity comprising more than 50% of the cells
Experimental: as §2

KB = experiment: Hoechst 33342 nuclear staining (Table 3); assay type: cell-based, human; design: key: 0 relating to no activity; 1 relating to weak activity comprising less than 50% of the cells; score 2 relating to strong activity comprising more than 50% of the cells
Experimental: as §2

Ramos [6] = experiment: Hoechst 33342 nuclear staining (Table 3); assay type: cell-based, human; design: key: 0 relating to no activity; 1 relating to weak activity comprising less than 50% of the cells; score 2 relating to strong activity comprising more than 50% of the cells
Experimental: as §2

HeLa [7] = experiment: Hoechst 33342 nuclear staining (Table 3); assay type: cell-based, human; design: key: 0 relating to no activity; 1 relating to weak activity comprising less than 50% of the cells; score 2 relating to strong activity comprising more than 50% of the cells
Experimental: as §2

A20 = experiment: AnnexinV/7-AAD staining; assay type: cell-based, mouse; conditions: A20, 10 µM, 24 h treatment
Experimental: (§3) Adherent cells (1 - 2*10^5) are 24 h prior to compound treatment seeded into 24 well tissue culture plates. Suspension cells are pipetted into P-tubes immediately before treatment. Test compounds are added leading to a final concentrations of 10 µM. After 24 h treatment cells are harvested (in case of adherent cells by trypsinization) and transferred to FACS tubes (BD Biosciences). After centrifugation and removal of the supernatant, 100 µl complete medium containing AnnexinV-GST (10 µg) is added, mixed and incubated at 4°C for 30 minutes. Subsequently, the cells are washed once with medium and incubated with 100 µl anti-GST Alexa 488 (Molecular Probes A-11131) in medium diluted 1:500 for 30 minutes at 4°C. Then, cells are washed once and stained with 1 µg/ml 7-aminoactinomycin D (7-AAD) (Molecular Probes A-1310) in 250 µl medium and analyzed on the FACSCalibur™. AnnexinV is measured in FL1 whereas 7-AAD is measured in FL3. In Table 5 the percentage of positively stained cells after treatment with the respective compounds are indicated. The following scores are used: Score 0 relates to less than 10%, score 1 relates to more than 10% but less than 50% and score 2 relates to more than 50% positivity.

Jurkat [8] = experiment: AnnexinV/7-AAD staining; assay type: cell-based, human; conditions: 10 µM, 24 h treatment
Experimental: as §3

Ramos [9] = experiment: AnnexinV/7-AAD staining; assay type: cell-based, human; conditions: 10 µM, 24 h treatment
Experimental: as §3

HeLa [10] = experiment: AnnexinV/7-AAD staining; assay type: cell-based, human; conditions: 10 µM, 24 h treatment
Experimental: as §3

CC1(C)Cc2ccccc2-c2c(C(=O)C(F)(F)F)c3nc4ccccc4nc3n21 [No. 4, 1-(6,6-Dimethyl-5,6-dihydro-6a,7,12-triaza-dibenzo[a,h]fluoren-13-yl)-2,2,2-trifluoro-ethanone]
IC50 (Jurkat [1]): > 10 µM
IC50 (K562 [2]): > 10 µM
IC50 (HeLa [3]): > 10 µM
Hoechst 33342 nuclear staining (Jurkat [4]; 24h, conc 0.3 (µM)): 0
Hoechst 33342 nuclear staining (Jurkat [4]; 24h, conc 1 (µM)): 0
Hoechst 33342 nuclear staining (Jurkat [4]; 24h, conc 3 (µM)): 2 (score 2 relating to strong activity comprising more than 50% of the cells)
Hoechst 33342 nuclear staining (Jurkat [4]; 24h, conc 10 (µM)): 2 (score 2 relating to strong activity comprising more than 50% of the cells)
Hoechst 33342 nuclear staining (Jurkat [4]; 48h, conc 0.3 (µM)): 0
Hoechst 33342 nuclear staining (Jurkat [4]; 48h, conc 1 (µM)): 2 (score 2 relating to strong activity comprising more than 50% of the cells)
Hoechst 33342 nuclear staining (Jurkat [4]; 48h, conc 3 (µM)): 2 (score 2 relating to strong activity comprising more than 50% of the cells)
Hoechst 33342 nuclear staining (Jurkat [4]; 48h, conc 10 (µM)): 2 (score 2 relating to strong activity comprising more than 50% of the cells)
Hoechst 33342 nuclear staining (K562 [5]; K562, 24h, conc 0.3 (µM)): 0
Hoechst 33342 nuclear staining (K562 [5]; K562, 24h, conc 1 (µM)): 1 (1 relating to weak activity comprising less than 50% of the cells)
Hoechst 33342 nuclear staining (K562 [5]; K562, 24h, conc 3 (µM)): 2 (score 2 relating to strong activity comprising more than 50% of the cells)
Hoechst 33342 nuclear staining (K562 [5]; K562, 24h, conc 10 (µM)): 2 (score 2 relating to strong activity comprising more than 50% of the cells)
Hoechst 33342 nuclear staining (K562 [5]; K562, 48h, conc 0.3 (µM)): 0
Hoechst 33342 nuclear staining (K562 [5]; K562, 48h, conc 1 (µM)): 2 (score 2 relating to strong activity comprising more than 50% of the cells)
Hoechst 33342 nuclear staining (K562 [5]; K562, 48h, conc 3 (µM)): 2 (score 2 relating to strong activity comprising more than 50% of the cells)
Hoechst 33342 nuclear staining (K562 [5]; K562, 48h, conc 10 (µM)): 2 (score 2 relating to strong activity comprising more than 50% of the cells)
Hoechst 33342 nuclear staining (KB; 24h, conc 0.3 (µM)): 0
Hoechst 33342 nuclear staining (KB; 24h, conc 1 (µM)): 0
Hoechst 33342 nuclear staining (KB; 24h, conc 3 (µM)): 0
Hoechst 33342 nuclear staining (KB; 24h, conc 10 (µM)): 2 (score 2 relating to strong activity comprising more than 50% of the cells)
Hoechst 33342 nuclear staining (KB; 48h, conc 0.3 (µM)): 0
Hoechst 33342 nuclear staining (KB; 48h, conc 1 (µM)): 0
Hoechst 33342 nuclear staining (KB; 48h, conc 3 (µM)): 2 (score 2 relating to strong activity comprising more than 50% of the cells)
Hoechst 33342 nuclear staining (KB; 48h, conc 10 (µM)): 2 (score 2 relating to strong activity comprising more than 50% of the cells)
Hoechst 33342 nuclear staining (Ramos [6]; 24h, conc 0.3 (µM)): 1 (1 relating to weak activity comprising less than 50% of the cells)
Hoechst 33342 nuclear staining (Ramos [6]; 24h, conc 1 (µM)): 2 (score 2 relating to strong activity comprising more than 50% of the cells)
Hoechst 33342 nuclear staining (Ramos [6]; 24h, conc 3 (µM)): 2 (score 2 relating to strong activity comprising more than 50% of the cells)
Hoechst 33342 nuclear staining (Ramos [6]; 24h, conc 10 (µM)): 2 (score 2 relating to strong activity comprising more than 50% of the cells)
Hoechst 33342 nuclear staining (Ramos [6]; 48h, conc 0.3 (µM)): 1 (1 relating to weak activity comprising less than 50% of the cells)
Hoechst 33342 nuclear staining (Ramos [6]; 48h, conc 1 (µM)): 2 (score 2 relating to strong activity comprising more than 50% of the cells)
Hoechst 33342 nuclear staining (Ramos [6]; 48h, conc 3 (µM)): 2 (score 2 relating to strong activity comprising more than 50% of the cells)
Hoechst 33342 nuclear staining (Ramos [6]; 48h, conc 10 (µM)): 2 (score 2 relating to strong activity comprising more than 50% of the cells)
Hoechst 33342 nuclear staining (HeLa [7]; 24h, conc 0.3 (µM)): 0
Hoechst 33342 nuclear staining (HeLa [7]; 24h, conc 1 (µM)): 0
Hoechst 33342 nuclear staining (HeLa [7]; 24h, conc 3 (µM)): 0
Hoechst 33342 nuclear staining (HeLa [7]; 24h, conc 10 (µM)): 2 (score 2 relating to strong activity comprising more than 50% of the cells)
Hoechst 33342 nuclear staining (HeLa [7]; 48h, conc 0.3 (µM)): 0
Hoechst 33342 nuclear staining (HeLa [7]; 48h, conc 1 (µM)): 0
Hoechst 33342 nuclear staining (HeLa [7]; 48h, conc 3 (µM)): 2 (score 2 relating to strong activity comprising more than 50% of the cells)
Hoechst 33342 nuclear staining (HeLa [7]; 48h, conc 10 (µM)): 2 (score 2 relating to strong activity comprising more than 50% of the cells)
percentage of positively stained cells (AnnexinV/7-AAD staining) (A20): 1 (score 1 relates to more than 10% but less than 50%)
percentage of positively stained cells (AnnexinV/7-AAD staining) (Jurkat [8]): 2 (score 2 relates to more than 50% positivity)
percentage of positively stained cells (AnnexinV/7-AAD staining) (Ramos [9]): 2 (score 2 relates to more than 50% positivity)
percentage of positively stained cells (AnnexinV/7-AAD staining) (HeLa [10]): 1 (score 1 relates to more than 10% but less than 50%)

From patent EP1433789A1, “Pyrrolopyrazines and their use as selective apoptosis inducers” (Aponetics AG, priority 2002, dated 2004)
